48 compounds from ChEMBL document CHEMBL6178010, “XPO1-Targeting Selective Inhibitors of Transcriptional Activation Suppress Graft-versus-Host Disease” (J Med Chem, 2025) can be followed below.

Series [1] concerns the target Exportin-1 (Homo sapiens, UniProt O14980). Description: Inhibition of XPO1 in PMA/ionomycin-activated human Jurkat cells expressing IL-2 promoter reporter gene assessed as suppression of IL-2 transcriptional activity incubated for 6 hrs by Bright-Glo Luciferase assay. Type of series: cell-based. For orientation: A reporter such as luciferase makes a cellular process visible.

Series [2] deals with XPO1. Description: Selectivity ratio of EC50 for cytotoxicity against human Jurkat cells assessed as suppression of cell viability to EC50 for inhibition of XPO1 in PMA/ionomycin-activated human Jurkat cells expressing IL-2 promoter reporter gene assessed as suppression of IL-2 transcriptional activity. Type of series: toxicity, cell-based. Particulars: read-out: Ratio EC50.

The subject of series [3] is Jurkat. The series is described as follows: Cytotoxicity against human Jurkat cells assessed as suppression of cell viability incubated for 24 hrs by CellTiter-Glo assay. Type of series: functional, cell-based. On the technique in general: ATP-based viability assays read luminescence as a measure of living cells.
Series [4] in a line: Metabolic stability in mouse liver microsome assessed as half life. Type of series: ADME. Particulars: liver microsomes. In general terms: Liver microsomes are a subcellular fraction often used to study metabolism.
The nature of series [5]: Metabolic stability in mouse liver microsome assessed as intrinsic clearance. Type of series: ADME. Conditions: liver microsomes, read-out: CLH.

SMILES strings stand for the structures.

Exportin-1, sequence (O14980 whole entry): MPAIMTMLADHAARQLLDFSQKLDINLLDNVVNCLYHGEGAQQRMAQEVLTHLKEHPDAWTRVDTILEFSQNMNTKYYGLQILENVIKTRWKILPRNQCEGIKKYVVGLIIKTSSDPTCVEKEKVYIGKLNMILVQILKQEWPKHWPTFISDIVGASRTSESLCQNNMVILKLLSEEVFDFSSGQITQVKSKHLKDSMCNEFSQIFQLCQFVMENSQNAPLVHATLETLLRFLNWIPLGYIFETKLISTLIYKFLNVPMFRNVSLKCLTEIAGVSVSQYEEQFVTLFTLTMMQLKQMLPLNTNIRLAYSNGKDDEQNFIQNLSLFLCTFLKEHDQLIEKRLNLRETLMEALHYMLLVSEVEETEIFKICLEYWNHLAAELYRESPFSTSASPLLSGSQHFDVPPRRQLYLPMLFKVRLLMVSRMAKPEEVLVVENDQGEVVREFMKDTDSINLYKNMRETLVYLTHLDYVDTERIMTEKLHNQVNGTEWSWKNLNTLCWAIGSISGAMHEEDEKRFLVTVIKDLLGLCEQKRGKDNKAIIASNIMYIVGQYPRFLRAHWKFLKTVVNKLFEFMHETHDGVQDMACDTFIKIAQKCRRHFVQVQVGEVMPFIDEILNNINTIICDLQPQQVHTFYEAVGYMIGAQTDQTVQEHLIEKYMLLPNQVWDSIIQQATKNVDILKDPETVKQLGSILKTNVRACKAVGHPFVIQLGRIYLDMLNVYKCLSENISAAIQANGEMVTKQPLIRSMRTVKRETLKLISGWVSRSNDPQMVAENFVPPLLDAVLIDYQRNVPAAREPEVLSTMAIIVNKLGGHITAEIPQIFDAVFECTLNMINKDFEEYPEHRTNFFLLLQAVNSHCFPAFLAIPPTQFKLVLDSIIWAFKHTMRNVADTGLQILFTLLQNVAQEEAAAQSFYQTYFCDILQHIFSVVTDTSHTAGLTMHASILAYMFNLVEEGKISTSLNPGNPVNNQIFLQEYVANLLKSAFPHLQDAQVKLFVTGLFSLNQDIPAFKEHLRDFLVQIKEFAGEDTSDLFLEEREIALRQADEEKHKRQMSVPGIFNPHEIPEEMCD

With `CC1=CC(=O)N(N(C)c2ccc(C(F)(F)F)c(N3CCCC(F)(F)C3)n2)C1=O`, the 50% effective concentration (EC50) worked out at 11 nM in series [1] and 70.9 nM in series [3]. For the same compound, the selectivity ratio in series [2] was determined as 6.4.
In the same order, the values of `CNc1nc(NN2C(=O)C=C(C)C2=O)ccc1C(F)(F)F` are 37 nM, 661 nM and 17.9.
In the same order, the values of `CO[C@@H]1CCN(c2nc(NN3C(=O)C=C(C)C3=O)ccc2C(F)(F)F)C1` are 25 nM, 400 nM and 16.
In the same order, the values of `CC1=CC(=O)N(Nc2ccc(C(F)(F)F)c(N3CCCC3=O)n2)C1=O` are 1630 nM, 4790 nM and 2.9.
For the compound `CC1=CC(=O)N(Nc2ccc3cn[nH]c3n2)C1=O`, the figures for the EC50 in series [1] and in series [3] were 1820 nM and 6310 nM, respectively. For the same compound, in series [2], the selectivity ratio is 3.5.
`CC1=CC(=O)N(Nc2ccc(C(F)(F)F)c(C3CCCC3)n2)C1=O`: the EC50 was 12 nM in series [1] and 34 nM in series [3]. Besides, the selectivity ratio in series [2] was determined as 2.8. The half-life in series [4] is below 10 min. For the same compound, in series [5], the microsomal CLint was above 139 µL/min/mg.
As to `CC1=CC(=O)N(N(C)c2nc(N3CC(F)(F)C3)nn3cccc23)C1=O`, the values for the EC50 in series [1] and in series [3] were 250 nM and 2250 nM, respectively. Further, in series [2], the selectivity ratio amounted to 9.
Regarding `CC1=CC(=O)N(Nc2nc(C3CCCC3)nn3cccc23)C1=O`, the EC50 in series [1] came to 170 nM; in series [3], 955 nM. Also, in series [2], the selectivity ratio is 5.6.
In the same order, the values of `CC1=CC(=O)N(Nc2nc(-c3ccno3)nn3cccc23)C1=O` are 550 nM, 5620 nM and 10.2.
In the same order, the values of `CC1=CC(=O)N(Nc2cc(C(F)(F)F)cc(N3CCCC3)n2)C1=O` are 4.7 nM, 26 nM and 5.5.
In the case of `CC1=CC(=O)N(N(C)c2ccc(C(F)(F)F)c(N3CCCCC3)n2)C1=O`, the EC50 in series [1] came to 5.3 nM; in series [3], 66 nM. In addition, the selectivity ratio in series [2] is 12.5.
In the case of `COc1cccc2nc(-c3cccs3)nc(NN3C(=O)C=C(C)C3=O)c12` [AS-602868], the figures for the EC50 in series [1] and in series [3] were 5.9 nM and 30.2 nM, respectively. Moreover, the selectivity ratio in series [2] worked out at 5.1. Further, the half-life in series [4] is below 10 min. In addition, the microsomal CLint in series [5] was above 139 µL/min/mg.
Consider `CC1=CC(=O)N(N(C)c2nc(N(C)CC3CC3)nn3cccc23)C1=O`, for which the EC50 in series [1] came out at 29.1 nM; in series [3], 187 nM. In addition, the selectivity ratio in series [2] was found to be 6.4. For the same compound, the half-life in series [4] came out at 8.5 min. The microsomal CLint in series [5] was 163 µL/min/mg.
As to `CC1=CC(=O)N(N(C)c2ccc(C(F)(F)F)c(N3CCCCCC3)n2)C1=O`, the EC50 is 2.5 nM in series [1] and 35.9 nM in series [3]. Also, the selectivity ratio in series [2] was 14.4.
In the same order, the values of `CC1=CC(=O)N(Nc2nc(N(C)C3CCCC3)nn3cccc23)C1=O` are 80.2 nM, 423 nM and 5.3.
As to `O=C(Nc1cc(C(F)(F)F)cc(C(F)(F)F)c1)c1cnc(Cl)nc1C(F)(F)F`, the half-life in series [4] is below 10 min. Besides, the microsomal CLint in series [5] was above 139 µL/min/mg.
Take `CC1=CC(=O)N(Nc2nc(N3CC(F)(F)C3)nn3cccc23)C1=O`: the concentration for a half-maximal effect (EC50) in series [1] came to 58 nM; in series [3] it was 447 nM. Moreover, the selectivity ratio in series [2] amounted to 7.7.
In the same order, the values of `CC1=CC(=O)N(Nc2ccc(C(F)(F)F)c(N3CC4(CCC4)C3)n2)C1=O` are 13 nM, 82 nM and 6.3.
In the same order, the values of `CC1=CC(=O)N(N(C)c2ccc(C(F)(F)F)c(N3CC(F)(F)C3)n2)C1=O` are 7.1 nM, 47 nM and 6.6.
As for `CC1=CC(=O)N(Nc2ccc(C(F)(F)F)c(-c3ccnn3C)n2)C1=O`, the EC50 in series [1] turned out to be 724 nM; in series [3] it was 1740 nM. Further, in series [2], the selectivity ratio was 2.4.
Take `CC1=CC(=O)N(Nc2ccc(F)c(N3CC(F)(F)C3)n2)C1=O`: the concentration giving a half-maximal response (EC50) in series [1] stood at 40 nM; in series [3], 232 nM. In addition, the selectivity ratio in series [2] was 5.8.
As for `CC1=CC(=O)N(Nc2ncc(C(F)(F)F)c(Cl)n2)C1=O`, the half-maximal effective concentration (EC50) in series [1] amounted to 156 nM; in series [3], 338 nM. In series [2], the selectivity ratio came out at 2.2. Also, in series [4], the half-life turned out to be 19.9 min. In series [5], the microsomal CLint came out at 70 µL/min/mg.
With `CC1=CC(=O)N(Nc2nc(N3CCCC(F)(F)C3)nn3cccc23)C1=O`, the 50% effective concentration (EC50) came to 222 nM in series [1] and 832 nM in series [3]. For the same compound, the selectivity ratio in series [2] stood at 3.7.
As for `CC1=CC(=O)N(Nc2nc(N3CCCCC3)nn3cccc23)C1=O`, the results for the EC50 in series [1] and in series [3] were 30.1 nM and 148 nM, respectively. Also, the selectivity ratio in series [2] turned out to be 4.9.
`CC1=CC(=O)N(Nc2nc(C3CC3)nn3cccc23)C1=O`: the EC50 in series [1] was determined as 107 nM; in series [3] it was 347 nM. Also, the selectivity ratio in series [2] was 3.2.
With `CC1=CC(=O)N(Nc2ccc(C(F)(F)F)c(N3CC(F)(F)C3)n2)C1=O`, the EC50 in series [1] came to 23 nM; in series [3], 138 nM. The selectivity ratio in series [2] is 6. Further, the half-life in series [4] is below 10 min. For the same compound, in series [5], the microsomal CLint is above 139 µL/min/mg.
For `CC1=CC(=O)N(Nc2cc(C(F)(F)F)c(C(F)(F)F)cn2)C1=O`, the concentration for a half-maximal effect (EC50) in series [1] amounted to 9.4 nM; in series [3], 190 nM. In addition, the selectivity ratio in series [2] amounted to 20.2.
In the same order, the values of `CC1=CC(=O)N(Nc2nc(-c3ccnn3C)nn3cccc23)C1=O` are 251 nM, 1320 nM and 5.3.
Consider `CC1=CC(=O)N(Nc2nc(N(C)CC3CC3)nn3cccc23)C1=O`, for which the 50% effective concentration (EC50) was 60.4 nM in series [1] and 329 nM in series [3]. Besides, the selectivity ratio in series [2] was determined as 5.4. Further, in series [4], the half-life was determined as 2.6 min. Besides, in series [5], the microsomal CLint turned out to be 528 µL/min/mg.
As for `CC1=CC(=O)N(Nc2nc(Cl)nn3cccc23)C1=O`, the values for the concentration giving a half-maximal response (EC50) in series [1] and in series [3] were 76 nM and 813 nM, respectively. The selectivity ratio in series [2] is 10.7.
In the case of `CC1=CC(=O)N(Nc2nc(Cl)c(C(F)(F)F)cc2F)C1=O`, the EC50 in series [1] amounted to 9 nM; in series [3], 30 nM. In addition, the selectivity ratio in series [2] amounted to 3.3. Besides, in series [4], the half-life was determined as 11.4 min. In addition, the microsomal CLint in series [5] worked out at 121 µL/min/mg.
For the compound `CC1=CC(=O)N(N(C)c2ccc(C(F)(F)F)c(N3CCC(F)(F)CC3)n2)C1=O`, the half-maximal effective concentration (EC50) came out at 9.7 nM in series [1] and 75 nM in series [3]. Further, the selectivity ratio in series [2] was 7.7.
In the same order, the values of `CC1=CC(=O)N(N(C)c2nc(N3CCCCC3)nn3cccc23)C1=O` are 61.5 nM, 386 nM and 6.3.
In the same order, the values of `CO[C@H]1CCN(c2nc(NN3C(=O)C=C(C)C3=O)ccc2C(F)(F)F)C1` are 20.4 nM, 492 nM and 24.1.
In the case of `CN(c1ccc(C(F)(F)F)c(N2CC(F)(F)C2)n1)N1CC=CC1=O`, the EC50 turned out to be 46 nM in series [1] and 82 nM in series [3]. In series [2], the selectivity ratio came out at 1.8.
Regarding `CC1=CC(=O)N(Nc2cc(N3CC(F)(F)C3)c(C(F)(F)F)cn2)C1=O`, the half-maximal effective concentration (EC50) in series [1] is 60 nM; in series [3], 770 nM. For the same compound, in series [2], the selectivity ratio turned out to be 12.8.
In the same order, the values of `CC1=CC(=O)N(Nc2ccc(C(F)(F)F)c(N3CC4CC(C4)C3)n2)C1=O` are 7.3 nM, 38.1 nM and 5.2.
As for `CC1=CC(=O)N(Nc2ccc(C(F)(F)F)c(Cl)c2)C1=O`, the concentration for a half-maximal effect (EC50) amounted to 1.5 nM in series [1] and 8.6 nM in series [3]. In series [2], the selectivity ratio is 5.7.
In the same order, the values of `CC1=C(C)C(=O)N(Nc2nc(C(F)(F)F)nn3cccc23)C1=O` are 963 nM, 920 nM and 0.96.
As for `CC1=CC(=O)N(Nc2ccc(C(F)(F)F)c(N3CCC3)n2)C1=O`, the concentration for a half-maximal effect (EC50) in series [1] was 11 nM; in series [3], 434 nM. In series [2], the selectivity ratio turned out to be 39.5. Besides, in series [4], the half-life was below 10 min. In addition, in series [5], the microsomal CLint is above 139 µL/min/mg.
In the same order, the values of `CC1=CC(=O)N(Nc2nc(-c3ccccc3)nn3cccc23)C1=O` are 66.2 nM, 410 nM, 6.2, 75 min and 19 µL/min/mg.
On to `COCC#Cc1cc(NN2C(=O)C=C(C)C2=O)cc(C(F)(F)F)c1`, for which the EC50 in series [1] was determined as 61 nM; in series [3] it was 696 nM. Moreover, the selectivity ratio in series [2] was 11.4.
Take `CC1=CC(=O)N(Nc2nc(-c3cccs3)nn3cccc23)C1=O`: the concentration for a half-maximal effect (EC50) in series [1] stood at 44.7 nM; in series [3] it was 170 nM. Moreover, the selectivity ratio in series [2] stood at 3.8.
With `CC1=CC(=O)N(N(C)c2nc(N3CCCC(F)(F)C3)nn3cccc23)C1=O`, the EC50 in series [1] came to 209 nM; in series [3], 4290 nM. The selectivity ratio in series [2] came out at 20.5.
`CC1=CC(=O)N(Nc2ccc(C(F)(F)F)c(-n3ccnc3)n2)C1=O`: the EC50 stood at 447 nM in series [1] and 1900 nM in series [3]. For the same compound, the selectivity ratio in series [2] is 4.2.
Consider `CC1=CC(=O)N(Nc2cc(C(F)(F)F)cc(C(F)(F)F)n2)C1=O`, for which the half-maximal effective concentration (EC50) worked out at 18 nM in series [1] and 91 nM in series [3].
In the case of `CC1=CC(=O)N(N(C)c2nc(N(C)C3CCCC3)nn3cccc23)C1=O`, the results for the half-maximal effective concentration (EC50) in series [1] and in series [3] were 95.7 nM and 418 nM, respectively. Besides, the selectivity ratio in series [2] was found to be 4.4.
Turning to `CC1=CC(=O)N(Nc2ccc(C(F)(F)F)c(Cl)n2)C1=O`, in series [4], the half-life amounted to 26.1 min. Further, in series [5], the microsomal CLint was determined as 53 µL/min/mg.

The term EC50 denotes the midpoint of the concentration-response curve. The half-life is the time in which the quantity being followed falls by half.
